The subject of experiment [1] is Pancreatin (activated pancreatic enzyme). The experiment can be described thus: Protease activity of pancreatin solution (pseudo artificial pancreatic juice), EnzCheck Protease Assay Kit with fluorescently-labeled casein. It is filed as biochemical, pig. The following applies: final concentration within range recommended by manufacturers; 37° C. for 2 hours; Ex/Em=485/535 nm. On the procedure: A protease inhibitor screen was performed to find an inhibitor targeting a serine protease and having a high inhibitory effect against pancreatic juice. The protease inhibitors used were aprotinin (product of Roche), leupeptin (product of Roche), PMSF (product of Roche), AEBSF (product of Roche), p-APMSF (product of SIGMA), camostat mesilate (Foipan: product of Wako Pure Chemical Industries), gabexate mesilate (FOY: product of Wako Pure Chemical Industries), TLCK (product of SIGMA), and TPCK (product of SIGMA). It is to be noted that TPCK is an amino acid chloromethyl ketone having inhibitory activity against chymotrypsin but having no inhibitory activity against trypsin.
“Pancreatin”, a digestive enzyme prepared from the pig pancreas in which a pancreatic enzyme was present in activated form was used as pseudo artificial pancreatic juice. After addition of protease inhibitors in an amount so that the final concentration thereof would fall within a concentration range recommended by the manufacturers of the inhibitors, the protease activity was measured. The protease activity was measured using EnzCheck Protease Assay Kits (product of Molecular Probes). Described specifically, fluorescently-labeled casein attached to a kit was added to a pancreatin solution containing each protease inhibitor. After incubation at 37° C. for 2 hours, the amount of fluorescence was measured at a fluorescence wavelength of Ex/Em=485/535 nm. As a control, the protease activity of a sample solution (containing no inhibitor) obtained by directly adding fluorescently-labeled casein to pancreatin was measured.
The amount of fluorescence plotted along the ordinate represents the amount of degraded casein and it was approximated as the value of protease activity. The protease inhibitors contained respectively in the pancreatin solutions and final concentrations thereof are plotted along the abscissa. […] These inhibitors are each a sulfonyl fluoride-containing sulfone-based compound.

The subject of experiment [2] is S100P in human clinical pancreatic juice specimens. In words: Room temperature storage stability of added S100P standard preparation in human clinical pancreatic juice specimens, S100P ELISA (Example 2). Conditions: 25 ng/mL S100P standard added; four human clinical pancreatic juice specimens; 25° C. for 16 hours; AEBSF 4 mM, PMSF 1 mM. An excerpt: While attention was paid to the sulfone-based compounds found to have a high inhibitory effect against digestive enzymes in pancreatic juice in Example 1, the effect of the various sulfone-based compounds on the room temperature stability of S100P (calcium-binding protein) known as a marker protein of pancreatic cancer was studied. This means that by using four human clinical pancreatic juice specimens, whether the concentration of S100P changed or not after addition of a S100P protein standard preparation was studied before and after room temperature storage.
Described specifically, sample solutions were prepared as follows: (1) Sample Solution 1: containing no inhibitor, obtained by mixing 25 ng/mL of an S100P (standard preparation) solution with the human clinical specimens, respectively. (2) Sample Solution 2: AEBSF, obtained by adding AEBSF (final concentration: 4 mM) to Sample Solution 1. […] Then, S100P was detected using CircuLex S100P ELISA Kit (product of Cyclex, Catalogue Number: CY-8060) from solutions obtained by carrying out 10-fold dilution of the sample solutions with a buffer attached to CircuLex S100P ELISA Kit, respectively. As a control, S100P was detected similarly from Sample Solution 1 immediately after preservation (that is, before room temperature storage). […]
(In general: In an ELISA, binding on a coated surface is turned into a signal by an enzyme label.)

The subject of experiment [3] is S100P in human pancreatic juice specimens. The experiment can be described thus: Room temperature storage stability of S100P in human clinical pancreatic juice specimens versus freeze storage, S100P ELISA (Example 3). The following applies: seven human clinical specimens; 25° C. for 16 hours; AEBSF 4 mM, PMSF 1 mM. The method, then: With a view to improving the storage performance of pancreatic proteins further, it was studied whether the storage stability of S100P was influenced by the combined use of the sulfonyl fluoride-containing sulfone-based compound and TLCK, that is, another […] compound. Seven human clinical specimens were used.
Described specifically, sample solutions were prepared as follows: (1) Sample Solution 1: AEBSF, obtained by adding AEBSF (final concentration: 4 mM) to the human clinical specimens. (2) Sample Solution 2: AEBSF+PMSF, obtained by adding AEBSF (final concentration: 4 mM) and PMSF (final concentration: 1 mM) to the human clinical specimens. (3) Sample Solution 3: AEBSF+PMSF+Aprotinin, obtained by adding AEBSF (final concentration: 4 mM), PMSF (final concentration: 1 mM) and Aprotinin (final concentration: 3 μM) to the human clinical specimens. […]
The concentration of S100P is plotted along the ordinate, while Sample Solutions 1 to 5 (“AEBSF”, “AEBSF+PMSF”, “AEBSF+PMSF+Aprotinin”, “AEBSF+PMSF+TPCK”, and “AEBSF+PMSF+TLCK” in the graph) of the human pancreatic juice specimens 1 to 7 are plotted along the abscissa. […] As a result, in the sample solutions after frozen storage, S100P was detected, though varying in amount, from all the human pancreatic juice specimens irrespective of the kind of the protease inhibitor added. […]

Experiment [4] has as its system S100P in human pancreatic juice specimens 1 and 2. In words: Room temperature storage stability of added S100P standard preparation in human pancreatic juice specimens 1 and 2, S100P ELISA (Example 4). The following applies: 25 ng/mL S100P standard added (exogenous), 25° C. for 16 hours, AEBSF 4 mM, PMSF 1 mM, TLCK 1 mM. On the procedure: An effect of a protease inhibitor for storage stability of S100P in a pseudo artificial pancreatic juice and that for storage stability of S100P in a human clinical specimen were compared. As a S100P-containing pseudo artificial pancreatic juice, a solution obtained by adding S100P (standard preparation) to a pancreatin solution to give a concentration of 25 ng/mL was used.
More specifically, sample solutions were prepared as follows: (1) Sample Solution 1: containing no inhibitor, obtained by mixing 25 ng/mL of an S100P (standard preparation) solution with the two human clinical specimens (human pancreatic juice specimens 1 and 2) used in Example 3 and the pseudo artificial pancreatic juice. […]
The concentration of S100P is plotted along the ordinate, while Sample Solutions 1 to 4 using the human pancreatic juice specimens 1 and 2 and the S100P-containing pseudo artificial pancreatic juice (“Without inhibitor”, “AEBSF”, “AEBSF+PMSF”, and “AEBSF+PMSF+TLCK” in the graph) are plotted along the abscissa. […] As a result, in the sample solutions after freeze storage, S100P was detected from both the human pancreatic juice specimen and the pancreatin solution. On the other hand, with regard to the sample solutions after room temperature storage, no S100P was detected from the pancreatin solutions irrespective of the presence or absence or the kind of the protease inhibitor.

`NCCc1ccc(S(=O)(=O)F)cc1` [AEBSF, 4-(2-aminoethyl)-benzenesulfonyl fluoride]: the “inhibitory effect on protease activity (amount of fluorescence = degraded casein) of pancreatin solution” value (shortened to “inhibitory effect on protease activity”) in experiment [1] is recorded as “markedly high inhibitory effect”. For the same compound, in experiment [2], the “S100P concentration after room temperature storage” value is listed as “S100P was detected from any of the pancreatic juice specimens”. Also, the “S100P detection amount after room temperature storage compared with freeze storage” value in experiment [3] was “the detection amount was very small compared with that after freeze storage”. Also, in experiment [4], the “detection amount of S100P after room temperature storage” value is reported as “detection amount of S100P is greater”.

For `Cc1ccc(S(=O)(=O)N[C@@H](CCCCN)C(=O)CCl)cc1` [TLCK, N-a-tosyl-L-lysine chloromethyl ketone], in experiment [1], the “inhibitory effect on protease activity” value is on record as “not effective inhibitors by themselves”.

As to `Cl.N=C(N)c1ccc(CS(=O)(=O)F)cc1` [p-APMSF, p-amidinophenylmethanesulfonyl fluoride hydrochloride], the “inhibitory effect on protease activity” value in experiment [1] is “markedly high inhibitory effect”.

Turning to `O=S(=O)(F)Cc1ccccc1` [PMSF, phenylmethylsulfonyl fluoride], the “inhibitory effect on protease activity” value in experiment [1] is recorded as “markedly high inhibitory effect”.

These data come from patent US9376675B2, “Method for preserving components of pancreatic juice in a sample, and kit for preserving components of pancreatic juice in a sample” (priority 2012, dated 2016).
